Experimental data: US7022719B2, “Preventing and reversing the formation of advance glycosylation endproducts” (Alteon, Inc., priority 1995, dated 2006)
Like-named read-outs stand apart in the source and are kept apart here.

Assays:
[1] = test system: AGE-BSA crosslinked to collagen; test: Cross-link Breaking Assay (sandwich enzyme immunoassay); format: biochemical; settings: for Breaking Anti-AGE: anti-AGE antibody; for Breaking Anti-BSA: anti-BSA antibody
Protocol: The present invention also involves a novel sandwich enzyme immunoassay used to ascertain the ability of test compounds to “break” or reverse already formed advanced glycosylation endproducts by detecting the breaking of AGE (Advanced glycosylation endproduct) moieties from AGE-crosslinked protein. This assay comprises: • a) incubation of AGE-modified bovine serum albumin (AGE BSA) on collagen-coated wells of microtiter plates for a period of 2–6 hours' at a temperature of 37° C.; • b) washing of the wells with PBS-Tween; • c) application of the test compounds to the washed wells of step b; • d) incubation of the test compounds applied to the washed wells for an additional 12–24 hours at a temperature of about 37° C.; and • e) detection of the AGE-breaking using an antibody raised against AGE-ribonuclease or cross-link breaking with an antibody against BSA.
In order to ascertain the ability of the compounds of the instant invention to “break” or reverse already formed advanced glycosylation endproducts, a novel sandwich enzyme immunoassay was developed which detects breaking of AGE (Advanced glycosylation endproduct) moieties from AGE-crosslinked protein. The assay utilizes collagen-coated 96 well microtiter plates that are obtained commercially. […] Following an incubation period of 16 hours (37° C.) cross-link-breaking is detected using an antibody raised against AGE-ribonuclease or with an antibody against BSA. […] Details of the assay are as follows:
Methods Preparation of Solutions and Buffers • 1. AGE-BSA stock solutions were prepared as follows. Sodium phosphate buffer (0.4 M) was prepared by dissolving 6 grams of monobasic sodium phosphate in 100 ml of distilled water, 7 grams of dibasic sodium phosphate (0.4 M) in 100 ml of distilled water and adjusting the pH of the dibasic solution to 7.4 with the monobasic solution. Sodium azide (0.02 grams) was added per 100 ml volume to inhibit bacterial growth. The BSA solution was prepared as follows: 400 mg of Type V BSA (bovine serum albumin) was added for each ml of sodium phosphate buffer (above). A 400 mM glucose solution was prepared by dissolving 7.2 grams of dextrose in 100 ml of sodium phosphate buffer (above). The BSA and glucose solutions were mixed 1:1 and incubated at 37° C. for 12 weeks. The pH of the incubation mixture was monitored weekly and adjusted to pH 7.4 if necessary. After 12 weeks, the AGE-BSA solution was dialyzed against PBS for 48 hours with four buffer changes, each at a 1:500 ratio of solution to dialysis buffer. Protein concentration was determined by the micro-Lowry method. The AGE-BSA stock solution was aliquoted and stored at −20° C. […] Working solutions for crosslinking and breaking studies were prepared as follows. Test compounds were dissolved in PBS and the pH was adjusted to pH 7.4 if necessary. AGE-BSA stock solution was diluted in PBS to measure maximum crosslinking and in the inhibitor solution for testing inhibitory activity of compounds. The concentration of AGE-BSA necessary to achieve the optimum sensitivity was determined by initial titration of each lot of AGE-BSA. • 3. Wash buffer (“PBS-Tween”) was, prepared as follows. PBS was prepared by dissolving the following salts in one liter of distilled water: NaCl, 8 grams; KC1, 0.2 gram, KH2PO4. […] Tween-20 was added to a final concentration of 0.05% (vol/vol). • 4. Substrates for detection of secondary antibody binding were prepared by diluting the HRP substrate buffer 1:10 in distilled water and mixing with ABTS chromogen 1:50 just prior to use. Assay Procedures • 1. Biocoat plates were blocked with 300 μl of “Superbloc”. Plates were blocked for one hour at room temperature and were washed with PBS-Tween three times with the Dynatech platewasher before addition of test reagents. • 2. Each experiment was set up in the following manner. The first three wells of the Biocoat plate were used for the reagent blank.

[2] = test system: IgG crosslinked to circulating red blood cells; test: RBC-IgG Assay in streptozotocin-induced diabetic rats; format: in vivo, rat; settings: diabetic rats dosed orally at 10 mg/kg body weight; 19 days
Protocol: The test compounds are administered to the test animals either orally or intraperitoneally, and the blood samples are collected are tested at various times, e.g. 4, 7 or 19 days, after administration to assess efficacy.
Blood is collected from the rats in heparinized tubes and spun at 2000×g for 10 minutes, and the plasma carefully removed. Then, about 5 ml of PBS per ml blood is added, gently mixed, and then spun again. The supernatant is then removed by aspiration. The wash is then repeated two more times. Then, 0.2 to 0.3 ml of packed RBC is withdrawn from the bottom of the tube, using a pipette, and added to the PBS to make a 1 to 10 dilution. This dilution is then further diluted 1 to 25 and 1 to 50 in PBS. • B. Assay Set Up. • 1. Warm Superbloc to 37° C. • 2. Take a plate of Multiscreen-HA, 0.45 u. Cellulose ester membrane-sealed 96 well plate (Millipore MARAS45). • 3. Wet the wells with 100 μl of PBS. • 4. Add 300 μl of superblock to each well and incubate at 37° C. for one hour. • 5. Place the plate on the Millititer Vacuum holder, turn on the vacuum and press the plate down once for tight hold. The liquids in the wells will be suctioned off. Wash the wells with 300 μl of PBS-Tween 0.05%. • 6. Turn off the vacuum and add 100 μl of PBS to each well. • 7. […] Read OD of the solution collected in the Coming plate on Dynatech Plate reader Sample filter 1 and Ref. filter 4. • 17. […]

[3] = test system: cross-linking of glycated bovine serum albumin (AGE-BSA) to rat tail tendon collagen; test: Cross-linking Inhibition Assay; settings: for IC50: inhibition of AGE-BSA cross-linking to collagen-coated plate
Protocol: The following method was used to evaluate the ability of the compounds of the present invention to inhibit the cross-linking of glycated bovine serum albumin (AGE-BSA) to the rat tail tendon collagen-coated 96-well plate.
The blocking solution was removed from the wells by, washing the plate twice with PBS-'Tween 20 solution (0.05% Tween 20) using a NUNq-multiprobe or Dynatech ELISA-plate washer. Cross-linking of AGE-BSA (1 to 10 mg per well depending on the batch of AGE-BSA) to rat tail tendon collagen coated plate was performed with and without the testing ‘compound dissolved in PBS buffer at pH 7.4 at the desired concentrations by the, addition of 50 μl each of the AGE-BSA diluted in PBS or in the solution of test compound at 37° C. for 4 hours. Unbrowned BSA in PBS buffer with or without testing compound were added to the separate wells as the blanks. The un-cross-linked AGE-BSA was then removed by washing the wells three times with PBS-Tween buffer. The amount of AGE-BSA cross-linked to the tail tendon collagen-coated plate was then quantitated using a polyclonal antibody raised against AGE-RNase. After a one-hour incubation period, AGE antibody was removed by washing 4 times with PBS-Tween.
The bound AGE antibody was then detected with the addition of horseradish peroxidase-conjugated secondary antibody—goat anti-rabbit immunoglobulin and incubation for 30 minutes. […] The reaction was allowed for an additional 15 minutes and the absorbance was read at 410 nm in a Dynatech plate reader.

[4] = test system: tail tendon collagen; test: CNBr peptide maps of tail tendon collagen from diabetic rats; format: biochemical, rat; settings: tail tendon collagen of rats diabetic for 32 weeks, treated before cyanogen bromide digestion
[5] = test system: cross-linked AGE-BSA; test: Breaking of AGE-BSA polymer gel (SDS-PAGE); format: biochemical; settings: 10 mm, overnight at 37° C.
Protocol: BSA and glucose solutions (100 ml each) were mixed in the one liter Coming sterile flask, screw-capped tight and incubated at 56° C. without shaking. The bottle was opened once a week to remove aliquots for testing. Reaction was continued for 9 weeks when AGE-BSA polymer formation was observed.
Pieces of AGE-BSA gel was washed with PBS until no more protein was leached in the supernatant, blotted dry with paper towels. About 50 mg of the washed gel was incubated either with PBS or 10 mm 3-(2-phenyl-2-oxoethyl)thiazolium bromide (ALT 766) overnight at 37° C. The supernatants were analyzed by SDS-PAGE and stained with coommassie blue.

[6] = test system: aortic wall protein cross-linking; settings: diabetic rats; cited from earlier work
[7] = test system: immunoglobulin trapping in the kidney; settings: in vivo; cited from earlier work
[8] = test system: glomerular basement membrane thickness; settings: streptozotocin-diabetic rat model; cited from earlier work
[9] = test system: red blood cells; settings: in vivo; cited from earlier work

## Cc1c(CCO)sc[n+]1CC(=O)c1ccc2ccccc2c1.[Br-] [3-(2-(2′-naphthyl)-2-oxoethyl]-4-methyl-5-(2′-hydroxyethyl)-thiazolium bromide]
[1]; at 10 mM
  Breaking Anti-AGE: 52%
  Breaking Anti-BSA: 61%
[2]
  Percent Inhibition (RBC-IgG): 40 ± 24 @ 19 days %
[3]
  Relative Cross-link Inhibition (at 10 mM): 61%

## CCCCN(CCCC)C(=O)C[n+]1csc(CCO)c1C.[Br-] [3-(2-Dibutylamino-2-oxoethyl]-4-methyl-5-(2′-hydroxyethyl)-thiazolium bromide]
[1]; at 10 mM
  Breaking Anti-AGE: 25%
  Breaking Anti-BSA: 38%
other
  melting point: 78 to 80 °C
[3]
  Relative Cross-link Inhibition (at 10 mM): 0.8% (10 mm)

## COC(=O)C[n+]1csc(C)c1C.[Br-] [3-(2-methoxy-2-oxoethyl)-4,5-dimethylthiazolium bromide]
[1]; at 30 mM
  Breaking Anti-AGE: 63%
  Breaking Anti-BSA: 47%
other
  melting point: 184 to 185 °C (dec.)
[3]
  IC50: 480 µM

## O=C(C[n+]1ccsc1)c1ccccc1.[Br-] [3-(2-phenyl-2-oxoethyl) thiazolium bromide]
[1]; AGE-BSA reacted with unmodified, native collagen
  release of BSA from pre-formed AGE-mediated AGE-BSA/collagen complexes: concentration-dependent release of BSA
[1]; concentration not given
  Breaking Anti-AGE: 73%
  Breaking Anti-BSA: 98%
[1]; detection with anti-AGE antibody, read-out: IC50 (mM) Anti-AGE
  IC50: 0.02 mM
[1]; detection with anti-BSA antibody, read-out: IC50 (mM) Anti-BSA
  IC50: 0.014 mM
[4]
  electrophoresis of CNBr-digested collagen after treatment: indistinguishable from untreated, non-diabetic (control) collagen
[5]
  breaking of cross-linked AGE-BSA (SDS-PAGE, FIG. 2): breaking of cross-linked AGE-BSA
[3]
  IC50: 11100 µM

## N=C(N)NN [aminoguanidine]
[6]
  aortic wall protein cross-linking: diminishes
[7]
  immunoglobulin trapping in the kidney: reduction
[8]
  increased glomerular basement membrane thickness: prevented
[9]
  diabetes-induced changes in the deformability of red blood cells: prevent
